Experimental data reported in patent US6033669A, “Methods for generating cytotoxic T cells and treatment of diseases thereby” (priority 1992, dated 2000).
Non-standard residues stand in square brackets, D forms with d. Residues, ends and D or L forms follow the SMILES beside them. *: point of attachment. CH2CH2O(Galα1-4Galβ) = OC[C@H]1O[C@H](O[C@@H]2[C@H](O)[C@@H](O)[C@H](OCC*)O[C@@H]2CO)[C@H](O)[C@@H](O)[C@H]1O; X1 = OC[C@H]1O[C@H](O[C@@H]2[C@H](O)[C@@H](O)[C@H](*)O[C@@H]2CO)[C@H](O)[C@@H](O)[C@H]1O; hCys = N[C@@H](CCS)C(=O)O

Columns and labels:
RMA-S cells = test: Membrane expression of the CHO part (Gal2) by antibody staining in FACS; format: cell-based; settings: data not shown
Experimental: Panel A: RMA-s cells were incubated for 24 hours at 26° C. to induce expression of empty D^b MHC-1 chains at the cell surface, and at 37° C., and stained for D^b expression. Panel B: Removal of D^b expression by pronase treatment of RMA-S cells, preincubated at 26° C. Pronase treatment for 2 h and 4 h. D^b removal is complete at 4 h. Panels C and E: 26° C. induced RMA-S cells were treated with the glycopeptides Gal2 -CSG11 (panel C) or Gal2 CAS10 (panel E), 300 μM for 2 h at 37° C., washed and stained for Gal2 expression. Panels D and F: Glycopeptide treated RMA-S cells as in panels C and E were pronase treated to remove Db and glycopeptide expression, washed and further incubated at 37° C. to allow re-expression of glycopeptides and stained for Gal2 expression.
When the glycopeptide bind to MHC-1, on the cell surface, the expression (and acessibility) of the corresponding CHO part, can be detected by antibody staining in FACS, as described above in relation to FIGS. 10C and E.

[1] = system: target cells coated with different peptides and glycopeptides; test: Immunogenicity: mice immunized with glycopeptides, restimulated CTL tested for killing of coated target cells; format: in vivo; settings: for Comments: Table 5, comment on immunogenicity and cross-reactivity of CTL
[2] = system: monoclonal antibody Pk002; test: ELISA recognition of Gal2 glycopeptides by monoclonal antibody Pk002; format: binding, mouse; settings: antibody Pk002 (specificity Globotriaosyl Gal--Gal--Glc, CD77); peptides coated at 50 μg/ml, pH 9.6
Experimental: (§1) Peptides (50 μg/ml) were diluted in 0.05 M carbonate buffer (pH 9.6) and 100 μl/well was added to flat-bottomed Costar microplates (cat. No 3590) for incubation over-night at 4° C. Plates were washed once with PBS, pre-incubated with […] for 30 minutes at room temperature and washed twice with PBS/0.05% Tween buffer. Monoclonal antibodies were diluted in 0.5% gelatin/PBS/0.05% Tween, added to microplates and incubated for 2 hours at room temperaure, and flick-washed with PBS/Tween. Alkaline phosphatase conjugated rabbit anti-mouse immunoglobulins (Dakopauts code No. S 414) was diluted 1/1000 in PBS/Tween and added as 100 μl/well. After 2 hours incubation at room temperature and 4 washes with PBS/Tween, 100 μl of alkaline phosphatase substrate solution was added. Plates were read after 2 hour at room temperaure, using a Multiskan System (Lab systems), for optical density at 405 nm.

[3] = system: monoclonal antibody MC2101; test: ELISA recognition of Gal2 glycopeptides by monoclonal antibody MC2101; format: binding, mouse; settings: for Absorbance at 405 nm: antibody MC2101 (specificity Galabios Gal--Gal), peptides coated at 50 μg/ml, pH 9.6
Experimental: as §1
The ELISA assay was performed as described in connection with Table 4.

Molecule	expression of the Gal2 epitope on the surface of cells that have bound glycopeptides (FACS) (RMA-S cells)	Comments [1]	Absorbance at 405 nm [2]	Absorbance at 405 nm [3]	further results
CC(C)C[C@H](NC(=O)CNC(=O)[C@H](CCC(N)=O)NC(=O)[C@H](Cc1ccc(O)cc1)NC(=O)[C@@H](NC(=O)[C@H](Cc1ccc(O)cc1)NC(=O)CNC(=O)[C@H](CCCNC(=N)N)NC(=O)[C@@H](N)CSCCO[C@@H]1O[C@H](CO)[C@H](O[C@H]2O[C@H](CO)[C@H](O)[C@H](O)[C@H]2O)[C@H](O)[C@H]1O)C(C)C)C(=O)O [Gal2 -CRG9]	high Gal2 expression	–	–	–	–
CC(C)C[C@H](NC(=O)[C@H](CSCCO[C@@H]1O[C@H](CO)[C@H](O[C@H]2O[C@H](CO)[C@H](O)[C@H](O)[C@H]2O)[C@H](O)[C@H]1O)NC(=O)[C@H](Cc1ccc(O)cc1)NC(=O)CNC(=O)CNC(=O)[C@@H]1CCCN1C(=O)[C@H](CC(N)=O)NC(=O)[C@H](CCC(=O)O)NC(=O)[C@@H](NC(=O)CNC(=O)[C@@H](N)CO)C(C)C)C(=O)N[C@H](C(=O)O)[C@@H](C)O [SGV12-Gal2]	high Gal2 expression	–	–	–	killing of EL-4 cells coated with glycopeptide 7 by generated CTL ([1]; FIG. 13): at a lower level; killing of EL-4 cells coated with glycopeptides 2 and 5 by generated CTL ([1]; FIG. 13): killed; recognition of carrier peptide alone (SGV12) and other control peptides by generated CTL ([1]; FIG. 13): did not recognize the carrier peptide alone; type of T cell response generated by immunization ([1]; mouse, in vivo): Gal2 specific T cell response
FAP9: K^b binding peptide, SEQ ID NO: 20; sequence not printed (FAPGNYPAL)	–	Strong, with high FAP9-5h reactivity	–	–	–
CC(C)C[C@H](NC(=O)CNC(=O)[C@H](CCC(N)=O)NC(=O)[C@H](Cc1ccc(O)cc1)NC(=O)[C@H](CCSCCO[C@@H]1O[C@H](CO)[C@H](O[C@H]2O[C@H](CO)[C@H](O)[C@H](O)[C@H]2O)[C@H](O)[C@H]1O)NC(=O)[C@H](Cc1ccc(O)cc1)NC(=O)CNC(=O)[C@@H](N)CCCNC(=N)N)C(=O)O [RGY8-4h-Gal2] (H-RGY[hCys](CH2CH2O(Galα1-4Galβ))YQGL-OH)	–	–	–	–	CTL generated, tested against EL-4 cells coated with RGY8-4 h-Gal2 and RGY8-4 h ([1]; FIG. 14(A)): both peptide and glycopeptide specific CTL cells are generated; killing of EL-4 cells coated with SGV12-Gal2 or SGV12 by generated CTL ([1]; FIG. 14(B), criss-cross): only the cells coated with glycopeptide were killed
CSCC[C@H](NC(=O)[C@@H](NC(=O)[C@H](CCC(=O)O)NC(=O)[C@H](CO[C@@H]1O[C@H](CO)[C@H](O[C@H]2O[C@H](CO)[C@H](O)[C@H](O)[C@H]2O)[C@H](O)[C@H]1O)NC(=O)[C@H](CC(N)=O)NC(=O)[C@H](CCC(=O)O)NC(=O)[C@H](CC(N)=O)NC(=O)[C@H](CO)NC(=O)[C@H](C)N)[C@@H](C)O)C(=O)O [Conjugate A5N9-6S-Gal2] (H-ASNENS(X1)ETM-OH)	not recognized	–	–	–	–
R G Y h Y Q G L [RGY8-4h]	–	Strong, with RGY8 reactivity	–	–	–
CSCC[C@H](NC(=O)[C@@H](NC(=O)[C@H](CCC(=O)O)NC(=O)[C@H](CCSC)NC(=O)[C@H](CC(N)=O)NC(=O)[C@H](CCC(=O)O)NC(=O)[C@H](CC(N)=O)NC(=O)[C@H](CO)NC(=O)[C@H](C)NC(=O)[C@@H](N)CSCCO[C@@H]1O[C@H](CO)[C@H](O[C@H]2O[C@H](CO)[C@H](O)[C@H](O)[C@H]2O)[C@H](O)[C@H]1O)[C@@H](C)O)C(=O)O [Gal2 -CAS10]	–	–	0.04	0.41	–
C A S N E N M E T M (CASNENMETM) [CAS10]	–	–	0.01	0.02	–
RGYVYQGL [RGY8]	–	Some RGY8-4h reactivity	–	–	–
ASNENMDAM [pep 9(NT60)]	–	–	–	–	lysis of virus specific and peptide-coated EL4 cells by induced CTL (EL4 target cells; 0.05 μM used for restimulation versus 5 μM and 0.5 μM, 100 μg s.c.): more efficiently lysed; anti-peptide and antiviral CTL responses (EL4 target cells; compared with pep 9(PR8), FIG. 3): stronger anti-peptide and antiviral CTL responses; specificity of induced CTL (EL4 target cells; mouse, in vivo): preferentially killed their corresponding peptide-coated and virus-infected cells
F A P G h Y P A L [FAP9-5h]	–	Weaker, low FAP9 reactivity	–	–	–
CSGPSNTPPEI [CSG11]	–	–	0.08	0.01	–
CC[C@H](C)[C@H](NC(=O)[C@H](CCC(=O)O)NC(=O)[C@@H]1CCCN1C(=O)[C@@H]1CCCN1C(=O)[C@@H](NC(=O)[C@H](CC(N)=O)NC(=O)[C@H](CO)NC(=O)[C@@H]1CCCN1C(=O)CNC(=O)[C@H](CO)NC(=O)[C@@H](N)CSCCO[C@@H]1O[C@H](CO)[C@H](O[C@H]2O[C@H](CO)[C@H](O)[C@H](O)[C@H]2O)[C@H](O)[C@H]1O)[C@@H](C)O)C(=O)O [Gal2 -CSG11]	high Gal2 expression	–	0.04	1.86	reactivity with MC2101 in ELISA, comparison [3]: reacted stronger than the GAL2 -CAS10 peptide
